Measurements as given in patent US9259409B2, “Compositions comprising a prostaglandin for treating neuropsychiatric conditions” (Inceptum Research & Therapeutics, Inc., priority 2011, dated 2016).

Tested on: CREB transcription factor
Test: CREB transcription factor activation (S133 phosphorylation) in HEK293T cells (Western blot)
Format: cell-based, human
Details: 10 μM, vs DMSO-treated cells
Experimental: Human embryonic kidney 293T (HEK293T) cells, U87MG astrocytoma and the human oligodendrocyte cell line MO3-13 were grown in Dubelco Minimal Eagle Media (DMEM) (Invitrogen, Carlsbad, Calif., USA) supplemented with 5% heat inactivated fetal bovine serum. Cells were grown to 70% confluence prior to treatment. […] Cells were exposed to drug for 3 hours at 37° C. in a 5% CO2 incubator. U87MG cells were grown to 70% confluence prior to treatment. Cells were treated with either DMSO vehicle (NT) or individually with 1, 5 and 10 μM latanoprost in DMEM lacking fetal bovine serum. Cells were exposed to treatments for 6 hours at 37° C. in a 5% CO2 incubator. The human oligodendrocyte cell line MO3-13 was grown and differentiated according to the methods described in McLaurin et al. (McLaurin, J., Trudel, G. C., Shaw, I. T., Antel, J. P., and Cashman, N. R., J. Neurobiol., 26: 283-293, 1995). On the third day of serum starvation, cells were treated with either DMSO vehicle (NT) or individually with 1, 5 and 10 μM latanoprost. Cells were exposed to treatments for 6 hours at 37° C. in a 5% CO2 incubator. […]
Protein concentrations were determined by the Peterson method (Peterson, Analyt. Biochem., 83: 346-356, 1977). […]

Compound: CC(C)OC(=O)CCC/C=C\C[C@@H]1[C@@H](CC[C@@H](O)CCc2ccccc2)[C@H](O)C[C@@H]1O [latanoprost, propan-2-yl-(Z)-7-[(1R,2R,3R,5S)-3,5-dihydroxy-2-[(3R)-3-hydroxy-5-phenylpentyl]cyclopentyl]-hept-5-enoate]
- levels of S133 phosphorylated-CREB: increased levels of 5133 phosphorylated-CREB
